Experimental data: US20060280687A1, “Compounds for tissue imaging and methods of use thereof” (priority 2005, published 2006)
Values belong to the compound of their own block, whether it stands above or below them.

Columns and labels:
[1] = UV absorption and fluorescence spectra; format: physicochemical
Experimental: The crude product was then injected onto a semi-preparative HPLC column, where the flow rate was 3 mL/min, with the mobile phase starting from 5% solvent B (0.1%TFA in CH3CN) and 95% solvent A (0.1%TFA in water) (0-3 min) to 65% solvent B and 35% solvent A at 33 min, then going to 85% solvent B and 15% solvent A (33-36 min), maintaining this solvent composition for another three minutes (36-39 min), and returning to initial solvent composition by 42 min. Product elution was monitored at both 218 and 590 nm using a UV-Vis detector. The product peak was collected, lyophilized, and identified by MALDI-TOF-MS. The chemical purity of product was determined by analytical HPLC (same gradient as used for semi-preparative HPLC; flow rate: 1.0 ml/min). The product was re-dissolved in saline at a concentration of 1 mg/mL, and stored in the dark at −80° C. until use. The absorbance spectrum of Cy5.5-2DG was rerecorded on an Agilent 8453 UV-visible ChemStation (Agilent Technologies, Wilmington, DE), and fluorescence spectrum of Cy5.5-2DG was measured on a Fluoromax-3 fluorophotometer (JOBIN YVON/HORIBA, Edison, N.J.).

[2] = Stability on in vitro incubation in mouse serum, HPLC analysis; format: in vitro ADME; conditions: 30 minutes incubation in mouse serum
Experimental: The stability of the Cy5.5-2DG compound was evaluated by incubating the compound in vitro in mouse serum and analyzing the serum as a function of time by high pressure liquid chromatography (HPLC). […] The main peak is observed at 15.2 minutes.

[3] = system: human glioblastoma cells (U87MG); test: In vitro cell uptake by fluorescence microscopy, U87MG; format: cell-based; conditions: 100 nM, 1 hour
Experimental: Human glioblastoma U87MG cells were cultured in Dulbecco's modified Eagle medium (DMEM, Invitrogen Life Technologies, Carlsbad, Calif.), high glucose plus 10% fetal bovine serum (FBS), and 1% penicillin-streptomycin. The cells were maintained in a humidified atmosphere of 5% CO2 at 37° C., with the medium changed every other day. A confluent monolayer was detached with trypsin and dissociated into a single cell suspension for further cell culture.
For fluorescence microscopic studies, 1 M cells were cultured on 35 mm MatTek glass bottom culture dishes (Cat #: P35G-0-14-C, Ashland, Mas.). […] The fluorescence signal of the cells was recorded using an Axiovert 200M fluorescence microscope (Carl Zeiss MicroImaging, Inc., Thornwood, N.Y.) equipped with a Cy5.5 filter set (Exciter, HQ 650/20 nm; Emitter, HQ 675/35 nm). An AttoArc HBO 100 W microscopic illuminator was used as a light source for fluorescence excitation. Images were taken using a thermoelectrically cooled charge-coupled device (CCD) (Micromax, model RTE/CCD-576, Princeton Instruments Inc., Trenton, N.J.) and analyzed using WinView Software version 1.6.2 (Princeton Instruments Inc., Trenton, N.J.)
Tumor uptake of the Cy5.5-2DG compound into human glioblastoma cells (U87MG) was determined by incubating the cells in vitro with the compound for one hour at either 37° C. or at 4° C., as described in Example 2. […]

C6 rat glioma cells = test: In vitro cell uptake by fluorescence microscopy, C6; format: cell-based; conditions: 1 hour
Experimental: (§1) For fluorescence microscopic studies, 1 M cells were cultured on 35 mm MatTek glass bottom culture dishes (Cat #: P35G-0-14-C, Ashland, Mas.). After 24 hours, the cells were washed with phosphate-buffered saline (PBS) and then incubated at 37° C. or 4° C. in the presence of 100 nM Cy5.5-2DG for 1 hour. Afterwards, cells were washed in 1 mL ice-cold PBS. The fluorescence signal of the cells was recorded using an Axiovert 200M fluorescence microscope (Carl Zeiss MicroImaging, Inc., Thornwood, N.Y.) equipped with a Cy5.5 filter set (Exciter, HQ 650/20 nm; Emitter, HQ 675/35 nm). An AttoArc HBO 100 W microscopic illuminator was used as a light source for fluorescence excitation. Images were taken using a thermoelectrically cooled charge-coupled device (CCD) (Micromax, model RTE/CCD-576, Princeton Instruments Inc., Trenton, N.J.) and analyzed using WinView Software version 1.6.2 (Princeton Instruments Inc., Trenton, N.J.)
Additional in vitro studies were conducted with several other tumor cells lines, including C6 rat glioma cells. Following the procedure set forth in Example 2, the glioma cells were incubated for one hour at 37° C. or at 4° C., and light images and fluorescent images were taken. The light images are shown in FIGS. 6A and 6B and the fluorescent images in FIGS. 6C and 6D. Both light images show cells in the image field.

[4] = system: A375M human melanoma cells; test: In vitro cell uptake by fluorescence microscopy, A375M; format: cell-based; conditions: 1 hour
Experimental: as §1
The light images (FIGS. 7A and 7B) show cells in the optical field.

[5] = system: murine melanoma cells B16F10; test: In vitro cell uptake by fluorescence microscopy, B16F10; format: cell-based; conditions: 1 hour
Experimental: as §1
FIGS. 8A and 8C show a light image (FIG. 8A) and a fluorescent image (FIG. 8C) of murine melanoma cells B16F10 incubated in vitro with Cy5.5-2DG for one hour at 37° C. […] FIGS. 8B and 8D show a light image (FIG. 8B) and a fluorescent image (FIG. 8D) of the same type of cells incubated in vitro with Cy5.5-2DG for one hour at 4° C.

[6] = system: MDA-MB-435 human breast carcinoma cells; test: In vitro cell uptake by fluorescence microscopy, MDA-MB-435; format: cell-based; conditions: 1 hour
Experimental: as §1
FIGS. 9A-9D illustrate the results of a similar study using MDA-MB-435 human breast carcinoma cells. Incubation at 37° C. […] (FIGS. 9B and 9D).

[7] = system: human glioblastoma xenograft (U87MG); test: In vivo fluorescence imaging of mice bearing a U87MG glioblastoma xenograft
Experimental: All animal studies were carried out in compliance with federal and local institutional rules for the conduct of animal experimentation. Female athymic nude mice (nu/nu, 10-12 weeks old), obtained from Charles River Laboratories (Boston, Mas.), were inoculated subcutaneously in the right foreleg with 5×10^6 U87MG cultured glioblastoma cells suspended in 100 μL of PBS. Two to three weeks after inoculation, when the tumors reached 0.4-0.6 cm in diameter, the tumor bearing mice were subject to in vivo imaging studies.
In vivo fluorescence imaging was performed with a cooled charged-coupled device (CCD) camera (Xenogen IVIS™ 200 small animal imaging system, Xenogen, Alameda, Calif.). A Cy5.5 filter set was used for acquiring Cy5.5-2DG fluorescence in vivo. Identical illumination settings (lamp voltage, filters, f/stop, field of views, binning) were used for acquiring all images, and fluorescence emission was normalized to photons per second per centimeter squared per steradian (p/s/cm^2/sr). Images were acquired and analyzed using Living Image® D2.5 software (Xenogen).
Mice were injected via tail vein with 50 or 500 pmol Cy5.5-2DG and subjected to optical imaging at various time points post injection with a sampling of multiple angles while remaining sedated. […]
All the data are given as means ± SD of n independent measurements. Statistical analysis was performed using a Student's t-test. Statistical significance was assigned for P values <0.05. For determining tumor contrast, mean fluorescence intensities of the tumor area at the right shoulder of the animal (T) and of the corresponding area at the left shoulder (N) were calculated by means of the region of interest function of Living Image software(Xenogen) integrated with Igor (Wavemetrics, Lake Oswego, Oreg.). Dividing T by N yielded the contrast between tumor tissue and normal tissue.
In vivo studies were done to evaluate performance of the Cy5.5-2DG compound in tumor-bearing subjects. As described in Example 3, mice were inoculated in the right foreleg with 5×10^6 U87MG cultured glioblastoma cells. Two to three weeks after inoculation, when the tumors reached 0.4-0.6 cm in diameter, the tumor-bearing mice were used for in vivo imaging studies.
In one study, the mice received 500 pmol of Cy5.5-2DG compound, injected via tail vein. At various times post injection of the probe, an animal was sedated and then imaged using a small animal imaging system available under the trade designation IVIS® (Xenogen, Alameda, Calif.). In other studies described below with respect to FIGS. 22-23, imaging was also done using an imaging system from ART eXplore Optix (ART Inc./GE Healthcare) and compared to imaging using the imaging system IVIS®. FIGS. 10A-10M are images generated with the IVIS® system of sedated, live mice in the prone position as a function of time after administration of 500 pmol of Cy5.5-2DG. […] At 1 hour (FIG. 10B), 2 hours (FIG. 10C), 4 hours (FIG. 10D), and 5 hours (FIG. 10E), the probe progressively clears from the body and begins to localize in the tumor in the right foreleg. In fact, by two hours post injection, accumulation of the compound in the tumor is readily apparent in the image (FIG. 10C). […] The presence of the probe in the tumor is apparent in all the images, long after the probe has cleared from healthy tissue.

[8] = system: human melanoma (A375M) xenograft; test: In vivo fluorescence imaging of mice bearing a human melanoma (A375M) xenograft; conditions: n=3
Experimental: Another study was conducted using mice (n=3) bearing a human melanoma (A375M) xenograft. When the tumor reached […] diameter, the mice received via tail vein injection 500 pmol of Cy5.5-2DG compound.

[9] = 500 pmol i.v., lateral position

UV absorption wavelength [1]: about 675 nm
fluorescent emission wavelength [1]: about 694 nm
Compound: CCN1\C(=C/C=C/C=C/C2=[N+](CCCCCC(=O)O)c3ccc4c(S(=O)(=O)O)cc(S(=O)(=O)O)cc4c3C2(C)C)C(C)(C)c2c1ccc1c(S(=O)(=O)[O-])cc(S(=O)(=O)O)cc21 [Cy5.5® dye, reference compound]

UV absorption wavelength [1]: about 675 nm
fluorescent emission wavelength [1]: about 694 nm
stability in mouse serum [2]: stable
time after injection at which accumulation in the tumor is apparent ([7]; 50 pmol i.v., lateral position): 1 h
time after injection at which preferential accumulation in the tumor is apparent ([7]; 50 pmol i.v., prone position): 30 min
time to maximum fluorescence intensity ([7]; 50 pmol i.v., prone position): ≤ 30 min
latest time point with fluorescence of the tumor tissue observed [7, 9]: 94 h
time by which compound has cleared from the tumor (tumor no longer visible) [7, 9]: ≤ 114 h
time post injection at which localization in the tumor is apparent in the image [7, 9]: two
time post injection at which accumulation in the tumor is apparent in the image ([7]; 500 pmol i.v., prone position): two
retention in the tumor ([7]; after single administration): up to 100 hours
Compound: CC[N+]1=C(C=CC=CC=C2N(CCCCCC(=O)NC3C(O)OC(CO)C(O)C3O)c3ccc4c(S(=O)(=O)[O-])cc(S(=O)(=O)O)cc4c3C2(C)C)C(C)(C)c2c1ccc1c(S(=O)(=O)[O-])cc(S(=O)(=O)O)cc21.[K+] (stereo not shown) [Cy5.5-2DG]
uptake of the fluorescent compound by the cells ([3]; 4° C.): lack of fluorescing cells
uptake of the fluorescent compound by the cells ([3]; 37° C.): considerably more uptake
uptake into the cells (C6 rat glioma cells; 4° C.): took up little, if any, of the compound
uptake into the cells (C6 rat glioma cells; 37° C.): distinct fluorescing cells visible
uptake into the cells ([4]; 4° C.): no apparent fluorescence
uptake into the cells ([4]; 37° C.): took in the compound
uptake into the cells ([5]; 4° C.): Little, if any
uptake into the cells ([5]; 37° C.): Uptake of the compound into the cells is apparent
uptake into the tumor cells ([6]; 4° C.): little of the compound
uptake into the tumor cells ([6]; 37° C.): resulted in uptake
ratio of fluorescence intensity of tumor tissue to healthy tissue ([7]; 50 pmol i.v., lateral position): about two
ratio of fluorescence intensity of tumor tissue to healthy tissue ([7]; 50 pmol i.v., prone position, 30 minutes after injection): 1.5
ratio of fluorescence intensity of tumor tissue to healthy tissue ([7]; 50 pmol i.v., prone position, by about 10 hours after injection): more than two
ratio of fluorescence intensity of tumor tissue to healthy tissue ([7]; 500 pmol i.v., lateral position, by about five hours post injection): two
ratio of fluorescence intensity of tumor tissue to healthy tissue ([7]; 500 pmol i.v., lateral position, up to 100 hours post injection): around two
ratio of fluorescence intensity of tumor tissue to healthy tissue (average radiance) ([7]; 500 pmol i.v., prone position, 120 hours post injection): 1.5
ratio of fluorescence intensity of tumor tissue to healthy tissue (average radiance) ([7]; 500 pmol i.v., prone position, about 4 hours post-injection): 1.5
ratio of fluorescence intensity of tumor tissue to healthy tissue (average radiance) ([7]; 500 pmol i.v., prone position, about 18 hours post injection): two
ex vivo fluorescence of dissected tumor versus major tissues and organs ([7]; 500 pmol, 45 hours post injection): highest fluorescence intensity among the tissues imaged
fluorescence of tumor tissue ([8]; 500 pmol i.v., 3, 24 and 48 hours post-injection): continued preferential fluorescence of tumor tissue
localization in the tumor ([8]; 500 pmol i.v., 2 hours post-injection): localization of the compound in the tumor is apparent
